The test system of one assay is caspase-3. In words: Caspase-3 activity in staurosporine-treated endothelial cells. The note with it: for caspase-3 fluorescent substrate pattern in intact cells: staurosporine for 3 hours, with or without cholesterol-altering agents; for caspase-3 activity (DEVDase): near-confluent monolayers of endothelial cells, cyclodextrin as pretreatment before staurosporine. Format: cell-based, guinea pig. On the procedure: Control cells received 0.05% DMSO final as a control for drug vehicle (n=4). Clarified supernatants from detergentsolubilized cells are assayed for DEVDase activity using the colorimetric caspase-3 substrate DEVD-pnitroaniline.
The sequestration of cholesterol from the plasma membrane can disrupt the localization of proteins within caveolae and lipid rafts, which has shown to interrupt signaling pathways.
Using a fluorescent substrate, caspase-3 activity can b e visualized in intact cell preparations.

For assay [1], the target named is T1, tumor cell-secreted nucleoside diphosphate kinase-B (NDPK-B, Nm23-H2) (Homo sapiens, UniProt P22392).
T1 construct: Partially purified tumor cell-secreted nucleoside diphosphate kinase-B was incubated with ADP and GTP; endogenous in cells; host or cells: human tumor cell lines MDA-MB-435s, Calu-1, WiDr and PC-3; concentrated conditioned Krebs buffer
T1 sequence (P22392 whole entry): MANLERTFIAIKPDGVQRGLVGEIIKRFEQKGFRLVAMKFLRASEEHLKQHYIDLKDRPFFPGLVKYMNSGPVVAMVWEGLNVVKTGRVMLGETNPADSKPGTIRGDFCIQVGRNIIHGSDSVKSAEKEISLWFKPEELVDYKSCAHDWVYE
Nature of the assay: NDPK-B kinase activity assay (ADP to ATP with GTP as phosphoryl donor, luciferin-luciferase). Format: biochemical. As to conditions: for Inhibition / IC50: inhibition of NDPK-B activity; for Inhibition: Yes/No, conc. tested differs per compound (0.3-10,000 μM); for inhibition of nucleoside diphosphate kinase-B activity (in words): summary of Table 1; for Km: KM of NDPK-B for ADP in presence of the inhibitor. On the procedure: The human tumors MDA-MB-435s (breast ductal carcinoma), Calu-1 (metastatic lung carcinoma), WiDr (colorectal carcinoma), and PC-3 (prostatic carcinoma) were grown to confluence in DMEM with 10% heat-inactivated FBS and antibiotics. Media was replaced with Krebs buffer (25 mM Hepes, pH 7.4) and incubated at 37° C. with gentle rocking for 4 hours. The supernatant was removed and concentrated by spin concentrators. Nucleoside diphosphate kinase activity of the retentate was assayed for activity and stored at −20° C.
Conversion of ADP to ATP, using GTP as the phosphoryl donor, was quantified using the Luciferin-Luciferase ATP assay as we have previously described (9). All necessary steps were taken to eliminate and account for interference between potential nucleoside diphosphate kinase-B inhibitors and the luciferase in the assay.
Partially purified tumor cell-secreted nucleoside diphosphate kinase-B was incubated with ADP and GTP in the presence of varying concentrations of putative nucleoside diphosphate kinase inhibitors or putative metastasis/angiogenesis inhibitors and the resulting ATP generated was measured by chemiluminescence using the luciferin-luciferase assay. […] Molecular modeling studies support these kinetic assumptions (data not shown).

The subject of assay [2] is Endothelial cells (CD31+ cells from guinea pig hearts). Nature of the assay: Angiogenesis assay (endothelial tube formation on EHS matrix). Format: cell-based. The note with it: 30 and 100 μM, ~16 hrs, endothelial tubes on EHS matrix. On the procedure:
Endothelial cells (CD31^+ cells from guinea pig hearts) were plated on a matrix composed of basement proteins from the Engelbreth Holm-Swarm (EHS) mouse tumor. The cells were incubated for 16 hrs in Complete Dulbecco's Modified Eagle Medium (CDMEM) with added tea catechins ellagic acid (EA), epigallocatechin gallate (EGCG), and epicatechin gallate (ECG). Bright field images were taken using a Nikon phase-contrast microscope and a Pulnix digital camera. […] Data are representative of two experiments. Fluorescence activated cell sorting (FACS) was used to select cardiac endothelial cells positive for the PECAM marker CD31. Endothelial cells were plated on a matrix of basement proteins from the Engelbreth Holm-Swarm (EHS) mouse tumor. A complete DME media containing 10% FBS was used to maintain endothelial cultures. Differentiation of the cells into endothelial tubes was monitored in the presence and absence of the compounds of interest.

In assay [3] the test system is guinea pig thoracic aorta. In words: Thoracic aorta in organ bath, measurement of tension. The note with it: for effect on norepinephrine-contracted aorta: added at peak norepinephrine contraction, endothelium present.
Assay [4] deals with Human endothelial cells monolayer. Nature of the assay: Tumor cell-induced paracellular holes in endothelial cell monolayers. Format: cell-based. The note with it: added at the same time as tumor cells. The source says: Additional studies aimed at direct analysis of the ability of polyphenolic catechin gallates to prevent breast cancer cell entry into and exit from vessels has been addressed by examining the ability of tumor cells to induce paracellular passages in endothelial cells monolayers in culture. Human endothelial cells grown to confluence in culture can be examined as a model of capillary intravasation or extravasation as in cases of human breast cancer metastasis in vivo, by examining their ability to form large (>30 μm) holes between cells (paracellular holes). […] Addition of tumor cells on top of the monolayer at concentrations of 1 cancer cell per 10,000 endothelial cells leads to the wide-spread appearance of large paracellular holes in the monolayer within 15 minutes of application of tumor cells. […] The effect is complete at 30 μM epigallocatechin gallate. Careful quantification of the presence of paracellular holes is underway using video imaging.

The source of these data is US7678549B2, “Polyphenol inhibition of nucleoside diphosphate kinase-B activity and cancer metastasis” (Research Development Foundation, priority 2001, dated 2010).

Regarding fillipin III, the “caspase-3 fluorescent substrate pattern in intact cells” value in the assay on caspase-3 is recorded as “global diffuse fluorescence”.

Regarding `Oc1ccc(C=Cc2cc(O)cc(O)c2)cc1` [Resveratrol, resveratrol], the Inhibition entry in assay [1] is “No”.

Turning to `Oc1cc(O)c2c(c1)O[C@H](c1cc(O)c(O)c(O)c1)[C@H](O)C2` [EGC, epigallocatechin], in assay [1], the Inhibition entry was “No” and the “inhibition of nucleoside diphosphate kinase-B activity (in words)” value (shortened to “inhibition … (in words)”) was “inhibited”.

As to `Nc1ncnc2c1ncn2[C@@H]1O[C@H](COP(=O)(O)OS(=O)(=O)O)[C@@H](OP(=O)(O)O)[C@H]1O` [PAPS], in assay [1], the Km (in general, the concentration of substrate that gives half-maximal velocity) is 7.1 ± 1.4 µM; half-maximal inhibition (IC50) was put at 0.5 mM; the Inhibition entry is given as “Yes”; the “inhibition … (in words)” value is recorded as “relatively low potency”.

Consider `CN[C@@H]1C[C@H]2O[C@@](C)([C@@H]1OC)n1c3ccccc3c3c4c(c5c6ccccc6n2c5c31)C(=O)NC4` [Staurosporine], for which, in the assay with caspase-3, the “caspase-3 activity (DEVDase)” value is given as “induce caspase-3 activity” and the “caspase-3 fluorescent substrate pattern in intact cells” value is given as “punctate fluorescence”.

For `O=C(O[C@@H]1Cc2c(O)cc(O)cc2O[C@@H]1c1cc(O)c(O)c(O)c1)c1cc(O)c(O)c(O)c1` [EGCG, epigallocatechin gallate], the inhibition of angiogenesis entry in assay [2] is listed as “dose-dependent inhibition of angiogenesis”. Besides, in assay [1], the Km worked out at 9.7 ± 1.8 µM; the concentration for half-maximal inhibition (IC50) (in general, the concentration that gives 50% inhibition) was 0.15 mM; the Inhibition result was “Yes”; the “inhibition … (in words)” value was “inhibited”. Also, the “effect on norepinephrine-contracted aorta” value in assay [3] is “further small contraction of the vessel followed by relaxation”. Besides, the “effect on norepinephrine-contracted aorta” value in assay [3] (listed as epigallocatechin gallate) is reported as “dramatic relaxation”. The “effect on aorta in the absence of endothelium” value in assay [3] (norepinephrine-contracted, endothelium absent) is “both contraction and relaxation are lost”. For the same compound, the “EGCG-dependent relaxation after pretreatment with L-NAME” value in assay [3] (pretreatment with nitric oxide synthase inhibitor L-NAME) is on record as “blocks epigallocatechin gallate-dependent relaxation”. In addition, in assay [4] (1 to 100 μM), the “formation of paracellular passages (holes >30 μm) induced by tumor cells” value is reported as “prevents the formation of the paracellular passages in a dose-dependent fashion”. The “concentration at which prevention of paracellular passages is complete” value in assay [4] turned out to be 30 µM.

As to `Cc1cn([C@H]2C[C@H](N=[N+]=[N-])[C@@H](CO)O2)c(=O)[nH]c1=O` [AZT], in assay [1], the Inhibition entry was “No”.

Consider `O=c1oc2c(O)c(O)cc3c(=O)oc4c(O)c(O)cc1c4c23` [Ellagic Acid, hexahydroxydiphenic acid dilactone], for which the inhibition of angiogenesis result in assay [2] is “dose-dependent inhibition of angiogenesis”. In assay [1], inhibition was half-maximal at 0.023 mM (IC50), the Inhibition entry is listed as “Yes” and the “inhibition … (in words)” value is listed as “highest inhibitory effect”.

In the case of `Nc1ncnc2c1nc(Cl)n2[C@@H]1O[C@@H]2COP(=O)(O)O[C@H]2[C@H]1O` [8-Cl-cAMP], in assay [1], the Km is 7.5 ± 1.5 µM, the Inhibition entry is “Yes” and the “inhibition … (in words)” value was “relatively low potency”. In assay [1] (value in mM), the IC50 was around 1 mM.

Take `CSc1nc(N)c2ncn([C@@H]3O[C@H](COP(=O)(O)OP(=O)(O)OP(=O)(O)O)[C@@H](O)[C@H]3O)c2n1` [2-methyl thio-ATP]: the “effect on norepinephrine-contracted aorta” value in assay [3] is reported as “completely relaxes”.

As for `O=C(O[C@@H]1Cc2c(O)cc(O)cc2O[C@@H]1c1ccc(O)c(O)c1)c1cc(O)c(O)c(O)c1` [ECG, epicatechin gallate], the inhibition of angiogenesis result in assay [2] is “dose-dependent inhibition of angiogenesis”. Moreover, in assay [1], half-maximal inhibition (IC50) was put at 0.17 mM and the Inhibition result was “Yes”.

For `NC[C@H](O)c1ccc(O)c(O)c1` [norepinephrine], the contraction of aorta entry in assay [3] (addition to resting vessel) was “contraction that is stable over time”.

With `O=c1c(O)cccc2cc(O)c(O)c(O)c12` [Purpurogallin], in assay [1], the IC50 is 0.6 mM and the Inhibition result was “Yes”.

Turning to `O=c1c(-c2ccc(O)cc2)coc2cc(O)cc(O)c12` [Genestein, genestein], the Inhibition result in assay [1] is reported as “No”.

Regarding β methyl-cyclodextrin, in the assay with caspase-3, the “caspase-3 activity (DEVDase)” value is given as “enhances enzymatic activity” and the “caspase-3 fluorescent substrate pattern in intact cells” value is “global diffuse fluorescence”.
